Experimental findings from patent US8563542B2 (Cyclacel Limited, priority 2007, dated 2013) are described below.

As a reminder, the IC50 is the midpoint of a concentration-inhibition curve.

For the assay, the target named is PLK1 (Homo sapiens, UniProt P53350). Briefly: PLK1 protein kinase assay (CDC25C phosphorylation, [γ-32P]-ATP). To be noted: Table 2, PLK1 IC50; class symbols; read-out: PLK1 IC50. The class given is biochemical.
Chain of PLK1 (P53350 whole entry): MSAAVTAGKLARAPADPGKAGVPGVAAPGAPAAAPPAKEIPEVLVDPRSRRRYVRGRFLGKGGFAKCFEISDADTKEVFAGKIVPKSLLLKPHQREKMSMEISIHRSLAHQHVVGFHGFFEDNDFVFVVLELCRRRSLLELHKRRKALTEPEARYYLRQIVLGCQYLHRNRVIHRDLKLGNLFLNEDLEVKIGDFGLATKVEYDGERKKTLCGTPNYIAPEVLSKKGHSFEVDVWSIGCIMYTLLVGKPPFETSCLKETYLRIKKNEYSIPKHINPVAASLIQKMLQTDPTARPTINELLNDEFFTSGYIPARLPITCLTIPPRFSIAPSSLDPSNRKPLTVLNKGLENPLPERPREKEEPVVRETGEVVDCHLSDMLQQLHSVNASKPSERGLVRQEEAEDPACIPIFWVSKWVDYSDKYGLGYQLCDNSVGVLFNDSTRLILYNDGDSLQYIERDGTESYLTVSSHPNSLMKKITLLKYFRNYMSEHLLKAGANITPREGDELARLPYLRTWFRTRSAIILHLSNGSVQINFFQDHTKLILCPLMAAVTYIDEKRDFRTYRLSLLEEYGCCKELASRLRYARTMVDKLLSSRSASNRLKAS

On to `COc1ccc(C(=O)NCC2CCCCN2C)cc1Nc1ncc2c(n1)N(C1CCCC1)CCC(=O)N2C` (centres unmarked) [compound 269, 3-(9-Cyclopentyl-5-methyl-6-oxo-6,7,8,9-tetrahydro-5H-pyrimido[4,5-b][1,4]diazepin-2-ylamino)-4-methoxy-N-(1-methyl-piperidin-2-ylmethyl)-benzamide], for which the IC50 is below 1000 nM. Regarding `COCCNC(=O)c1ccc(OC)c(Nc2ncc3c(n2)N(C2CCCC2)CCC(=O)N3C)c1` [compound 270, 3-(9-Cyclopentyl-5-methyl-6-oxo-6,7,8,9-tetrahydro-5H-pyrimido[4,5-b][1,4]diazepin-2-ylamino)-4-methoxy-N-(2-methoxy-ethyl)-benzamide], the IC50 was below 1000 nM. Next, `COc1ccc(C(=O)NC2CCN(Cc3ccccc3)CC2)cc1Nc1ncc2c(n1)N(C1CCCC1)CCC(=O)N2C` [compound 271, N-(1-Benzyl-piperidin-4-yl)-3-(9-cyclopentyl-5-methyl-6-oxo-6,7,8,9-tetrahydro-5H-pyrimido[4,5-b][1,4]diazepin-2-ylamino)-4-methoxy-benzamide]: below 1000 nM. Next, `COc1ccc(C(=O)NCCCCO)cc1Nc1ncc2c(n1)N(C1CCCC1)CCC(=O)N2C` [compound 272, 3-(9-Cyclopentyl-5-methyl-6-oxo-6,7,8,9-tetrahydro-5H-pyrimido[4,5-b][1,4]diazepin-2-ylamino)-N-(4-hydroxy-butyl)-4-methoxy-benzamide]: below 1000 nM; `COc1ccc(C(=O)NCc2ccco2)cc1Nc1ncc2c(n1)N(C1CCCC1)CCC(=O)N2C` [compound 273, 3-(9-Cyclopentyl-5-methyl-6-oxo-6,7,8,9-tetrahydro-5H-pyrimido[4,5-b][1,4]diazepin-2-ylamino)-N-furan-2-ylmethyl-4-methoxy-benzamide]: below 1000 nM. Take `CN1CCC(NC(=O)c2ccc(Nc3ncc4c(n3)N(C3CCCC3)CC3(CC3)C(=O)N4C)c(O)c2)CC1` [compound 274, 4-(9-Cyclopentyl-5-methyl-6-oxo-6,7,8,9-tetrahydro-5H-spiro[pyrimido[4,5-b][1,4]diazepin-3,1′-cyclopropane]-2-ylamino)-3-hydroxy-N-(1-methyl-piperidin-4-yl)-benzamide]: the IC50 is below 1000 nM.

For the compound `COc1cc(C(=O)O)ccc1Nc1ncc2c(n1)N(CC1CC1)CC(C)(C)C(=O)N2C` [compound 275, 4-(9-Cyclopropylmethyl-5,7,7-trimethyl-6-oxo-6,7,8,9-tetrahydro-5H-pyrimido[4,5-b][1,4]diazepin-2-ylamino)-3-methoxy-benzoic acid], the IC50 is below 1000 nM. The result for `COc1cc(C(=O)NC2CCN(C)CC2)ccc1Nc1ncc2c(n1)N(CC1CC1)CC(C)(C)C(=O)N2C` [compound 276, 4-(9-Cyclopropylmethyl-5,7,7-trimethyl-6-oxo-6,7,8,9-tetrahydro-5H-pyrimido[4,5-b][1,4]diazepin-2-ylamino)-3-methoxy-N-(1-methyl-piperidin-4-yl)-benzamide] reads below 1000 nM; that for `COc1cc(C(=O)NC2CCN(C)CC2)ccc1Nc1ncc2c(n1)N(c1ccccc1OC)CCC(=O)N2C` [compound 277, 3-Methoxy-4-[9-(2-methoxy-phenyl)-5-methyl-6-oxo-6,7,8,9-tetrahydro-5H-pyrimido[4,5-b][1,4]diazepin-2-ylamino]-N-(1-methyl-piperidin-4-yl)-benzamide], below 10000 nM; that for `COc1cc(C(=O)NC2CC(C)(C)N(C)C(C)(C)C2)ccc1Nc1ncc2c(n1)N(c1ccccc1OC)CCC(=O)N2C` [compound 278, 3-Methoxy-4-[9-(2-methoxy-phenyl)-5-methyl-6-oxo-6,7,8,9-tetrahydro-5H-pyrimido[4,5-b][1,4]diazepin-2-ylamino]-N-(1,2,2,6,6-pentamethyl-piperidin-4-yl)-benzamide], below 10000 nM.

Take `COc1cc(C(=O)NC2CN3CCC2CC3)ccc1Nc1ncc2c(n1)N(c1ccccc1OC)CCC(=O)N2C` (centres unmarked) [compound 279, N-(1-Aza-bicyclo[2.2.2]oct-3-yl)-3-methoxy-4-[9-(2-methoxy-phenyl)-5-methyl-6-oxo-6,7,8,9-tetrahydro-5H-pyrimido[4,5-b][1,4]diazepin-2-ylamino]-benzamide]: the IC50 was below 10000 nM. For `Cc1cc(C(=O)O)ccc1Nc1ncc2c(n1)N(C1CCCC1)CC1(CC1)C(=O)N2C` [compound 280, 4-(9-Cyclopentyl-5-methyl-6-oxo-6,7,8,9-tetrahydro-5H-pyrimido[4,5-b][1,4]diazepin-3,1′-cyclopropane-2-ylamino)-3-methyl-benzoic acid], the IC50 was below 10000 nM. Next, `CN1C(=O)C2(CC2)CN(C2CCCC2)c2nc(Nc3ccc(C(=O)O)cc3F)ncc21` [compound 283, 4-(9-Cyclopentyl-5-methyl-6-oxo-6,7,8,9-tetrahydro-5H-spiro[pyrimido[4,5-b][1,4]diazepin-3,1′-cyclopropane]-2-ylamino)-3-fluorobenzoic acid]: below 100 nM; `CN1CCC(NC(=O)c2ccc(Nc3ncc4c(n3)N(C3CCCC3)CC3(CC3)C(=O)N4C)c(OC(F)(F)F)c2)CC1` [compound 284, 4-(9-Cyclopentyl-5-methyl-6-oxo-6,7,8,9-tetrahydro-5H-spiro[pyrimido[4,5-b][1,4]diazepin-3,1′-cyclopropane]-2-ylamino)-3-trifluoromethoxy-N-(1-methyl-piperidin-4-yl)-benzamide]: below 100 nM; `Cc1cc(C(=O)NC2CCN(C)CC2)ccc1Nc1ncc2c(n1)N(C1CCCC1)CC1(CC1)C(=O)N2C` [compound 301]: below 1000 nM.

On to `COc1cc(C(=O)NC2CCN(C)CC2)ccc1Nc1ncc2c(n1)N(CC(C)C)CCC(=O)N2C` [compound 302, 4-(9-Isobutyl-5-methyl-6-oxo-6,7,8,9-tetrahydro-5H-pyrimido[4,5-b][1,4]diazepin-2-ylamino)-3-methoxy-N-(1-methyl-piperidin-4-yl)-benzamide], for which the IC50 is below 1000 nM.

`COc1cc(C(=O)NC2CCCN(C)C2)ccc1Nc1ncc2c(n1)N(CC(C)C)CCC(=O)N2C` (centres unmarked) [compound 303, 4-(9-Isobutyl-5-methyl-6-oxo-6,7,8,9-tetrahydro-5H-pyrimido[4,5-b][1,4]diazepin-2-ylamino)-3-methoxy-N-(1-methyl-piperidin-3-yl)-benzamide]: the IC50 is below 1000 nM.

As to `COc1cc(C(=O)NC2CCN(Cc3ccccc3)CC2)ccc1Nc1ncc2c(n1)N(CC(C)C)CCC(=O)N2C` [compound 304, N-(1-Benzyl-piperidin-4-yl)-4-(9-isobutyl-5-methyl-6-oxo-6,7,8,9-tetrahydro-5H-pyrimido[4,5-b][1,4]diazepin-2-ylamino)-3-methoxy-benzamide], the concentration for half-maximal inhibition (IC50) is below 1000 nM. With `COc1cc(C(=O)NC2CN3CCC2CC3)ccc1Nc1ncc2c(n1)N(CC(C)C)CCC(=O)N2C` (centres unmarked) [compound 305, N-(1-Aza-bicyclo[2.2.2]oct-3-yl)-4-(9-isobutyl-5-methyl-6-oxo-6,7,8,9-tetrahydro-5H-pyrimido[4,5-b][1,4]diazepin-2-ylamino)-3-methoxy-benzamide], the IC50 is below 1000 nM.

`COc1cc(C(=O)NC2CC(C)(C)N(C)C(C)(C)C2)ccc1Nc1ncc2c(n1)N(CC(C)C)CCC(=O)N2C` [compound 306, 4-(9-Isobutyl-5-methyl-6-oxo-6,7,8,9-tetrahydro-5H-pyrimido[4,5-b][1,4]diazepin-2-ylamino)-3-methoxy-N-(1,2,2,6,6-pentamethyl-piperidin-4-yl)-benzamide]: the IC50 is below 1000 nM. Regarding `CCN(CC)CCNC(=O)c1ccc(Nc2ncc3c(n2)N(CC(C)C)CCC(=O)N3C)c(OC)c1` [compound 307, N-(2-Diethylamino-ethyl)-4-(9-isobutyl-5-methyl-6-oxo-6,7,8,9-tetrahydro-5H-pyrimido[4,5-b][1,4]diazepin-2-ylamino)-3-methoxy-benzamide], the IC50 was below 1000 nM.

On to `COc1cc(C(=O)NC2CCN(C)CC2)ccc1Nc1ncc2c(n1)N(c1ccccc1C)CCC(=O)N2C` [compound 308, 3-Methoxy-4-(5-methyl-6-oxo-9-o-tolyl-6,7,8,9-tetrahydro-5H-pyrimido[4,5-b][1,4]diazepin-2-ylamino)-N-(1-methyl-piperidin-4-yl)-benzamide], for which the IC50 was below 10000 nM. Next, `COc1cc(C(=O)NC2CCCN(C)C2)ccc1Nc1ncc2c(n1)N(c1ccccc1C)CCC(=O)N2C` (centres unmarked) [compound 309, 3-Methoxy-4-(5-methyl-6-oxo-9-o-tolyl-6,7,8,9-tetrahydro-5H-pyrimido[4,5-b][1,4]diazepin-2-ylamino)-N-(1-methyl-piperidin-3-yl)-benzamide]: below 10000 nM; `COc1cc(C(=O)NC2CCN(Cc3ccccc3)CC2)ccc1Nc1ncc2c(n1)N(c1ccccc1C)CCC(=O)N2C` [compound 310, N-(1-Benzyl-piperidin-4-yl)-3-methoxy-4-(5-methyl-6-oxo-9-o-tolyl-6,7,8,9-tetrahydro-5H-pyrimido[4,5-b][1,4]diazepin-2-ylamino)-benzamide]: below 10000 nM; `COc1cc(C(=O)NC2CN3CCC2CC3)ccc1Nc1ncc2c(n1)N(c1ccccc1C)CCC(=O)N2C` (centres unmarked) [compound 311, N-(1-Aza-bicyclo[2.2.2]oct-3-yl)-3-methoxy-4-(5-methyl-6-oxo-9-o-tolyl-6,7,8,9-tetrahydro-5H-pyrimido[4,5-b][1,4]diazepin-2-ylamino)-benzamide]: below 1000 nM.

In the case of `COc1cc(C(=O)NC2CC(C)(C)N(C)C(C)(C)C2)ccc1Nc1ncc2c(n1)N(c1ccccc1C)CCC(=O)N2C` [compound 312, 3-Methoxy-4-(5-methyl-6-oxo-9-o-tolyl-6,7,8,9-tetrahydro-5H-pyrimido[4,5-b][1,4]diazepin-2-ylamino)-N-(1,2,2,6,6-pentamethyl-piperidin-4-yl)-benzamide], the IC50 was below 10000 nM. As to `CCN(CC)CCNC(=O)c1ccc(Nc2ncc3c(n2)N(c2ccccc2C)CCC(=O)N3C)c(OC)c1` [compound 313, N-(2-Diethylamino-ethyl)-3-methoxy-4-(5-methyl-6-oxo-9-o-tolyl-6,7,8,9-tetrahydro-5H-pyrimido[4,5-b][1,4]diazepin-2-ylamino)-benzamide], the IC50 is below 10000 nM. For the compound `COc1ccc(N2CCC(=O)N(C)c3cnc(Nc4ccc(C(=O)NC5CCN(C)CC5)cc4OC)nc32)cc1` [compound 314], the IC50 is below 1000 nM. With `COc1ccc(N2CCC(=O)N(C)c3cnc(Nc4ccc(C(=O)NC5CCCN(C)C5)cc4OC)nc32)cc1` (centres unmarked) [compound 315], the IC50 is below 1000 nM.
